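Tested at 5 concentrations; 48 h exposure; 96-well plates; endpoints linearly interpolated, else capped at highest concentration. The concentration for 50% growth inhibition is given as GI50. TGI marks complete inhibition of growth.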
Legend:
Test in all cases: growth of human tumour cells (NCI), 48 h
A549 NSCLC = tested on: A549 NSCLC
SK-MEL-28 melanoma = tested on: SK-MEL-28 melanoma
BT-549 breast = tested on: BT-549 breast
IGROV1 ovarian = tested on: IGROV1 ovarian
SNB-19 CNS = tested on: SNB-19 CNS
DU-145 prostate = tested on: DU-145 prostate
KM12 colon = tested on: KM12 colon
OVCAR-4 ovarian = tested on: OVCAR-4 ovarian
NCI-H460 lung = tested on: NCI-H460 lung
SF-268 CNS = tested on: SF-268 CNS
TK-10 renal = tested on: TK-10 renal
HCC-2998 colon = tested on: HCC-2998 colon
SK-OV-3 ovarian = tested on: SK-OV-3 ovarian
UO-31 renal = tested on: UO-31 renal
HOP-62 NSCLC = tested on: HOP-62 NSCLC
U251 CNS = tested on: U251 CNS
NCI/ADR-RES ovarian = tested on: NCI/ADR-RES ovarian
MALME-3M melanoma = tested on: MALME-3M melanoma
SR leukemia = tested on: SR leukemia
OVCAR-3 ovarian = tested on: OVCAR-3 ovarian
786-0 renal = tested on: 786-0 renal
T-47D breast = tested on: T-47D breast
UACC-62 melanoma = tested on: UACC-62 melanoma
HL-60(TB) leukemia = tested on: HL-60(TB) leukemia
HCT-15 colon = tested on: HCT-15 colon
RPMI-8226 leukemia = tested on: RPMI-8226 leukemia
K-562 leukemia = tested on: K-562 leukemia

SMILES: C=CCn1c(SCC(=O)Nc2ccc(C(=O)/C=C/c3cc(OC)c(OC)c(OC)c3)cc2)nnc1-c1ccc(Cl)cc1
- TGI (A549 NSCLC): 17.3 µM
- GI50 (SK-MEL-28 melanoma): 4.23 µM
- TGI (SK-MEL-28 melanoma): 54.6 µM
- GI50 (BT-549 breast): 2.4 µM
- TGI (BT-549 breast): 7.79 µM
- GI50 (IGROV1 ovarian): 2.76 µM
- TGI (IGROV1 ovarian): 13 µM
- GI50 (SNB-19 CNS): 3.64 µM
- TGI (SNB-19 CNS): > 100 µM
- GI50 (DU-145 prostate): 3.73 µM
- TGI (DU-145 prostate): 40.9 µM
- GI50 (KM12 colon): 1.97 µM
- TGI (KM12 colon): 5.23 µM
- GI50 (OVCAR-4 ovarian): 3.1 µM
- TGI (OVCAR-4 ovarian): 21 µM
- GI50 (NCI-H460 lung): 3.41 µM
- TGI (NCI-H460 lung): 13.5 µM
- GI50 (SF-268 CNS): 4.32 µM
- TGI (SF-268 CNS): > 100 µM
- GI50 (TK-10 renal): 7.87 µM
- TGI (TK-10 renal): 61.3 µM
- GI50 (HCC-2998 colon): 2.36 µM
- TGI (HCC-2998 colon): 5.67 µM
- GI50 (SK-OV-3 ovarian): 6.01 µM
- TGI (SK-OV-3 ovarian): 58.3 µM
- GI50 (UO-31 renal): 1.98 µM
- TGI (UO-31 renal): 8.34 µM
- GI50 (HOP-62 NSCLC): 3.76 µM
- TGI (HOP-62 NSCLC): 23.8 µM
- GI50 (U251 CNS): 1.73 µM
- TGI (U251 CNS): 4.38 µM
- GI50 (NCI/ADR-RES ovarian): 4.74 µM
- TGI (NCI/ADR-RES ovarian): > 100 µM
- GI50 (MALME-3M melanoma): 6.69 µM
- TGI (MALME-3M melanoma): 61.5 µM
- GI50 (SR leukemia): 1.52 µM
- TGI (SR leukemia): 7.45 µM
- GI50 (OVCAR-3 ovarian): 2.41 µM
- TGI (OVCAR-3 ovarian): 5.93 µM
- GI50 (786-0 renal): 2.16 µM
- TGI (786-0 renal): 5.59 µM
- GI50 (T-47D breast): 2.24 µM
- TGI (T-47D breast): 30.6 µM
- GI50 (UACC-62 melanoma): 2.94 µM
- TGI (UACC-62 melanoma): 25 µM
- GI50 (HL-60(TB) leukemia): 2.65 µM
- TGI (HL-60(TB) leukemia): 11.3 µM
- GI50 (HCT-15 colon): 2.68 µM
- TGI (HCT-15 colon): 18.8 µM
- GI50 (RPMI-8226 leukemia): 0.253 µM
- TGI (RPMI-8226 leukemia): 1.03 µM
- GI50 (K-562 leukemia): 1.7 µM
- TGI (K-562 leukemia): 10.5 µM

Reference: PubChem BioAssay (NCI)
